Reference: ChEMBL document CHEMBL2074252, “The specific bisindolylmaleimide PKC-inhibitor GF 109203X efficiently modulates MRP-associated multiple drug resistance” (Biochem Biophys Res Commun, 1995)

Target: Multidrug resistance-associated protein 1 (Homo sapiens, UniProt P33527)
Assay: TP_TRANSPORTER: inhibition of Rhodamine 123 efflux (R123: 0.8 ug/mL, GF109203X: 10 uM) in HL60/AR cells
Assay type: functional, cell-based

Chain of Multidrug resistance-associated protein 1 (P33527 whole entry): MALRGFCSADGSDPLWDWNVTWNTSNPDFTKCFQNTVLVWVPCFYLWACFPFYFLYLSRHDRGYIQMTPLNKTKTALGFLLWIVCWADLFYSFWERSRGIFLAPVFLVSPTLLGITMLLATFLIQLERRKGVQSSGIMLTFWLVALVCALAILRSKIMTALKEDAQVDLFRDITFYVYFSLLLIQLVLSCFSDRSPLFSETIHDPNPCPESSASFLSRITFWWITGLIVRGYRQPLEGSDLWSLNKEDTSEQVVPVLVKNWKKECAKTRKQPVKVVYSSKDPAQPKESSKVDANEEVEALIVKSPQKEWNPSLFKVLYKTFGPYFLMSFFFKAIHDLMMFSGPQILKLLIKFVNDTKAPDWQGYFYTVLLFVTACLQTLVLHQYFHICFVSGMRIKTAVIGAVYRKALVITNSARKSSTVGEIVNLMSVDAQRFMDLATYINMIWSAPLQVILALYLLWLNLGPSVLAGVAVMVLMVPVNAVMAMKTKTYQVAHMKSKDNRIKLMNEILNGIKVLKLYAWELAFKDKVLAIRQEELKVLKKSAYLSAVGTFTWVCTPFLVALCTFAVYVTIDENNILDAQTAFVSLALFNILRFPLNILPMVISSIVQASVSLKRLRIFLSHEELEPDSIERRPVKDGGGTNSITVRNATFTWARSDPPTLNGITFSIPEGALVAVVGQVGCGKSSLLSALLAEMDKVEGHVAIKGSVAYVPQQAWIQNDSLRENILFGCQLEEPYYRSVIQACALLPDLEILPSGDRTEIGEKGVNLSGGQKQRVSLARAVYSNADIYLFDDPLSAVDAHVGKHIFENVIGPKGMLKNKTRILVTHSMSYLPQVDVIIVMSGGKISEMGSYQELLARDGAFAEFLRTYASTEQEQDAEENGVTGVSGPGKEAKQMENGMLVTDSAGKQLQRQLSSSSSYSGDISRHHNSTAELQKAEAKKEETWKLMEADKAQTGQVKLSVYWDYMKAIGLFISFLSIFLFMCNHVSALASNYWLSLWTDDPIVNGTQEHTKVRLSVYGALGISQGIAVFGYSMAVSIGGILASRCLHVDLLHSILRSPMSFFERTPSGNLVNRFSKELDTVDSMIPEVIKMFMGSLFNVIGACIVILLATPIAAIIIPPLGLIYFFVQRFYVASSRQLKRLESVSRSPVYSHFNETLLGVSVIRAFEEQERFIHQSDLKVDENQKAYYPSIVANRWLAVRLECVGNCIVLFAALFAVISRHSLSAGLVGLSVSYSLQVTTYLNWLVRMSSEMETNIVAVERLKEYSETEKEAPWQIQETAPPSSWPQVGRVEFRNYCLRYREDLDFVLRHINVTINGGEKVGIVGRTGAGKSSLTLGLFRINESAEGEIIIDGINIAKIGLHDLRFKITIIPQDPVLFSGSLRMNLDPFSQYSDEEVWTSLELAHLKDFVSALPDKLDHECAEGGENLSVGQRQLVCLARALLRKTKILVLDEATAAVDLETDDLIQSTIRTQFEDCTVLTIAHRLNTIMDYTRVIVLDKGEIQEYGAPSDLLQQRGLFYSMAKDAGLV

- Activity: inhibitor [+]
Structure (SMILES): CN(C)CCCn1cc(C2=C(c3c[nH]c4ccccc34)C(=O)NC2=O)c2ccccc21 [GF-109203]
